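Grown in 96-well plates, cells were treated for 48 hours with each compound at five concentrations. Insufficient inhibition: endpoint recorded as highest concentration tested. TGI marks complete inhibition of growth.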
What was measured:
Test in all cases: growth of human tumour cells (NCI), 48 h
[1] = system: 786-0 renal
[2] = system: A498 renal
[3] = system: A549 NSCLC
[4] = system: ACHN renal
[5] = system: CAKI-1 renal
[6] = system: CCRF-CEM leukemia
[7] = system: COLO 205 colon
[8] = system: DLD-1 colon
[9] = system: DMS 114 small cell lung
[10] = system: DMS 273 small cell lung
[11] = system: EKVX NSCLC
[12] = system: HCC-2998 colon
[13] = system: HCT-15 colon
[14] = system: HL-60(TB) leukemia
[15] = system: HOP-18 NSCLC
[16] = system: HOP-62 NSCLC
[17] = system: HOP-92 NSCLC
[18] = system: HT29 colon
[19] = system: IGROV1 ovarian
[20] = system: K-562 leukemia
[21] = system: KM12 colon
[22] = system: KM20L2 colon
[23] = system: LOX IMVI melanoma
[24] = system: LXFL 529 NSCLC
[25] = system: M14 melanoma
[26] = system: M19-MEL melanoma
[27] = system: MALME-3M melanoma
[28] = system: MOLT-4 leukemia
[29] = system: NCI-H226 lung
[30] = system: NCI-H23 lung
[31] = system: NCI-H460 lung
[32] = system: NCI-H522 lung
[33] = system: OVCAR-3 ovarian
[34] = system: OVCAR-4 ovarian
[35] = system: OVCAR-5 ovarian
[36] = system: OVCAR-8 ovarian
[37] = system: RPMI-8226 leukemia
[38] = system: RXF-631 renal
[39] = system: SF-268 CNS
[40] = system: SF-295 CNS
[41] = system: SF-539 CNS
[42] = system: SK-MEL-2 melanoma
[43] = system: SK-MEL-28 melanoma
[44] = system: SK-MEL-5 melanoma
[45] = system: SK-OV-3 ovarian
[46] = system: SN12C renal
[47] = system: SNB-19 CNS
[48] = system: SNB-75 CNS
[49] = system: SNB-78 CNS
[50] = system: SW-620 colon
[51] = system: TK-10 renal
[52] = system: U251 CNS
[53] = system: UACC-257 melanoma
[54] = system: UACC-62 melanoma
[55] = system: UO-31 renal
[56] = system: XF 498 CNS

Measured: TGI

NC(=O)c1csc(C2OC(COP(=O)(O)CP(=O)(O)OCC3OC(n4cnc5c(N)ncnc54)C(O)C3O)C(O)C2O)n1 (stereo unspecified)
> 100 µM: [1] | [2] | [3] | [4] | [5] | [6] | [7] | [8] | [9] | [10] | [11] | [12] | [13] | [14] | [15] | [16] | [17] | [18] | [19] | [20] | [21] | [22] | [23] | [24] | [25] | [26] | [27] | [28] | [29] | [30] | [31] | [32] | [33] | [34] | [35] | [36] | [37] | [38] | [39] | [40] | [41] | [42] | [43] | [44] | [45] | [46] | [47] | [48] | [49] | [50] | [51] | [52] | [53] | [54] | [55] | [56]

— PubChem BioAssay (NCI)
